Measurements from patent US20240124504A1, “AROMATIC HETEROCYCLIC COMPOUND, AND PHARMACEUTICAL COMPOSITION AND APPLICATION THEREOF” (GT APEIRON THERAPEUTICS LIMITED, priority 2020, published 2024).

What was measured:
CDK9/cyclinT1 complex = CDK9/cyclinT1 complex (Homo sapiens, UniProt P50750); test: In-vitro enzymatic inhibitory activity testing, CDK9 inhibition assay (Caliper EZ Reader II); assay type: biochemical; conditions: CDK9/cyclinT1 8 nM, 180 min at 27° C.
Procedure: (§1) CDK12/CyclinK was diluted in an assay buffer (80 mM MES PH 6.5, 0.01% Tween 20, 50 ug/mL BSA, 10 mM MgCl2) to afford a corresponding enzyme solution with the 2.4 concentration. A compound was dissolved in dimethyl sulfoxide (DMSO) at a concentration of 10 mM. […] 2 ul of a test compound solution was mixed with 5 ul of the enzyme solution; after incubation for 10 min, 5 ul of the polypeptide substrate and ATP mixed solution was added; incubation was carried out for 180 min at 27° C.; and then, the reaction was terminated by adding 4 uL of EDTA with a concentration of 120 mM to each sample. […] A CDK9/cyclinT1 complex (8 nM) and a “5-FAM-CDK9tide” peptide substrate (2 IM, synthetic fluorophore-labeled peptide with the following sequence: 5-FAM-GSRTPMY-NH2, wherein 5-FAM was as defined above and NH2 represented C-terminal amide) were used for a CDK9 inhibition assay. […] A CDK2/cyclinE1 complex (0.5 nM) and “5-FAM-CDK7tide” (2 μM) as defined above were used for CDK2 inhibition assay.
(§2) A reaction mixture was analyzed on Caliper EZ Reader II by electrophoretic separation of a fluorogenic substrate and a phosphorylated product. Data were calculated by using GraphPad Prism version 6.0, and IC50 values were adjusted and obtained by using a nonlinear regression model of a dose response curve.

CDK2/cyclinE1 complex = CDK2/cyclinE1 complex (Homo sapiens, UniProt P24941); test: In-vitro enzymatic inhibitory activity testing, CDK2 inhibition assay (Caliper EZ Reader II); assay type: biochemical; conditions: CDK2/cyclinE1 0.5 nM, 180 min at 27° C.
Procedure: CDK12/CyclinK was diluted in an assay buffer (80 mM MES PH 6.5, 0.01% Tween 20, 50 ug/mL BSA, 10 mM MgCl2) to afford a corresponding enzyme solution with the 2.4 concentration. […] A CDK9/cyclinT1 complex (8 nM) and a “5-FAM-CDK9tide” peptide substrate (2 IM, synthetic fluorophore-labeled peptide with the following sequence: 5-FAM-GSRTPMY-NH2, wherein 5-FAM was as defined above and NH2 represented C-terminal amide) were used for a CDK9 inhibition assay. […] A CDK2/cyclinE1 complex (0.5 nM) and “5-FAM-CDK7tide” (2 μM) as defined above were used for CDK2 inhibition assay.
as §2

ovarian cancer A2780 = test: Cell biological activity detection (CyQuant, 72 hours), A2780; assay type: cell-based, human; conditions: A2780 cells, incubation for 72 hours
Procedure: (§3) A2780 and HCC70 cells were subjected to trypsin digestion treatment, and cell suspensions were respectively transferred to 15 mL centrifuge tubes and centrifuged for 5 min at […]) rpm; supernatant was discarded, and resuspension was carried out in a fresh medium (RPMI 1640+10% FBS), after counting, cells were seeded into a 384-well plate at 2000/well (50 μL of 1640+10% FBS medium was added to the 2nd column and the 23rd column of the 384-well plate, and 50 μL of DPBS was added to the surrounding wells). Incubation was carried out overnight in an incubator (37° C., 5% CO2).
(§4) The compound was added to the well plates the next day. The compound had the highest concentration of 10 μM and was diluted at 1:4, and there were a total of 9 concentrations; and a positive compound Paclitaxel had the highest concentration of 1 μM and was diluted at 1:3, and there were a total of 9 concentrations. The DMSO content in each well was unified to 0.2%. The cell plates were centrifuged for 30 seconds at 800 rpm and placed in an incubator (37° C., 5% CO2) for incubation for 72 hours. On the fourth day, a Cyquant reagent (3×) was formulated according to kit instructions, and formulation was carried out for each 384-well plate according to the following proportions: DPBS 11.568 mL, CyQuant®? Direct nucleic acid stain 72 μL, and CyQuant® Direct background suppressor 360 μL. After uniform mixing, the reagent was placed at room temperature for further use. The cell plates were taken out and equilibrated for 30 min at room temperature, and 25 μL of the Cyquant reagent (3×) per well was dispensed into the cells of the 384-well plates by Multi-drop, and incubation was carried out for more than 60 minutes at 37° C. Acumen plate reading (Acumen setting: an excitation wavelength of 488 nm). IC50 results were analyzed by XLFIT5 from IDBS Company.

[1] = target: T1, CDK12 (aa686-1082)/cyclinK complex (Homo sapiens, UniProt Q9NYV4); test: In-vitro enzymatic inhibitory activity testing, CDK12 inhibition assay (Caliper EZ Reader II); assay type: biochemical; conditions: CDK12/cyclinK 50 nM, 180 min at 27° C.; read-out: CDK12 IC50
T1 construct: A CDK12 (aa686-1082)/cyclinK complex (50 nM)
T1 sequence (Q9NYV4 686-1082, species assumed): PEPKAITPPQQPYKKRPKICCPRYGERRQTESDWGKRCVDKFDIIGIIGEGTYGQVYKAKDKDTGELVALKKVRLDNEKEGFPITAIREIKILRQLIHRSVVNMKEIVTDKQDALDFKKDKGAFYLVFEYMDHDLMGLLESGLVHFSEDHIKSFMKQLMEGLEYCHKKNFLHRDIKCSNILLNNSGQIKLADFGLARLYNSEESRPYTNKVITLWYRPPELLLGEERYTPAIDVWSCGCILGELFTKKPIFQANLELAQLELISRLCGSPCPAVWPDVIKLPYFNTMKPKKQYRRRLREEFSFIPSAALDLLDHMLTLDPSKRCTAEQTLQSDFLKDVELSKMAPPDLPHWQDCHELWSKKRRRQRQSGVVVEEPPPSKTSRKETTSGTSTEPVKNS
T1 sequence (O75909 whole entry partner, species assumed, the tested form may be a part): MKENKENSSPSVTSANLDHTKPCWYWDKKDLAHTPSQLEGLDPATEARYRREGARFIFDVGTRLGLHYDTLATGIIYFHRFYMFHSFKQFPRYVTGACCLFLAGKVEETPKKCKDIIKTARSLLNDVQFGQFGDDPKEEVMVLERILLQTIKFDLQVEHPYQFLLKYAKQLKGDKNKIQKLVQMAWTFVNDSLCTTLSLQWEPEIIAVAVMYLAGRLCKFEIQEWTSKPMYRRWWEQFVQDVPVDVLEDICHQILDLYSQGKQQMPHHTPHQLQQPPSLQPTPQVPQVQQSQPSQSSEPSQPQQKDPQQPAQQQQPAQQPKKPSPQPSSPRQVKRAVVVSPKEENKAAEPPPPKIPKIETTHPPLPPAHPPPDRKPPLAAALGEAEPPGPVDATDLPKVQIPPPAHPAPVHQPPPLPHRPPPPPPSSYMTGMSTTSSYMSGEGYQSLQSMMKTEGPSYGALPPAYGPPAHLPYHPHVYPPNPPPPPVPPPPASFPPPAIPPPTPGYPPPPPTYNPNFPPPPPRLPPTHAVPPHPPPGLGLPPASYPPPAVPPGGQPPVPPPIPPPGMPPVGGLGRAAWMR
Procedure: An assay was carried out in a U-bottom 384-well plate (coming, 4512#), and the reaction temperature was 27° C. CDK7/CyclinH was diluted in an assay buffer (20 mM MES PH 6.75, 0.01% Tween 20, 50 ug/mL BSA, 6 mM MgCl2) to afford a corresponding enzyme solution with the 2.4× concentration. CDK2/CyclinE1 was diluted in an assay buffer (20 mM MES PH 6.75, 0.01% Tween 20, 50 ug/mL BSA, 6 mM MgCl2) to afford a corresponding enzyme solution with the 2.4× concentration. CDK9/CyclinT1 was diluted in an assay buffer (20 mM MES PH 6.75, 0.01% Tween 20, 50 ug/mL BSA, 10 mM MgCl2) to afford a corresponding enzyme solution with the 2.4× concentration. CDK12/CyclinK was diluted in an assay buffer (80 mM MES PH 6.5, 0.01% Tween 20, 50 ug/mL BSA, 10 mM MgCl2) to afford a corresponding enzyme solution with the 2.4 concentration. A compound was dissolved in dimethyl sulfoxide (DMSO) at a concentration of 10 mM. During use, the compound was diluted with DMSO into 10 concentration gradients from 25 nM to 500 uM, and respectively diluted by 8.3 folds in the assay buffer to afford a compound solution with a 6× concentration. A polypeptide substrate and ATP were diluted in the assay buffer to afford a polypeptide substrate and ATP mixed solution with a 2.4× concentration. 2 ul of a test compound solution was mixed with 5 ul of the enzyme solution; after incubation for 10 min, 5 ul of the polypeptide substrate and ATP mixed solution was added; incubation was carried out for 180 min at 27° C.; and then, the reaction was terminated by adding 4 uL of EDTA with a concentration of 120 mM to each sample. […]. Specifically, a CDK7/cyclinH/MAT1 complex (6 nM) and a “5-FAMCD K 7 tide” peptide substrate (2 μM, synthetic fluorophore-labeled peptide with the following sequence: 5-FAM-[…], wherein “5-FAM” refers to 5-carboxyfluorescein) were used for a CDK7 inhibition assay. A CDK9/cyclinT1 complex (8 nM) and a “5-FAM-CDK9tide” peptide substrate (2 IM, synthetic fluorophore-labeled peptide with the following sequence: 5-FAM-GSRTPMY-NH2, wherein 5-FAM was as defined above and NH2 represented C-terminal amide) were used for a CDK9 inhibition assay. A CDK12 (aa686-1082)/cyclinK complex (50 nM) and “5-FAM-CDK9tide” (2 μM) as defined above were used for a CDK12 inhibition assay. A CDK2/cyclinE1 complex (0.5 nM) and “5-FAM-CDK7tide” (2 μM) as defined above were used for CDK2 inhibition assay.
as §2

[2] = target: CDK7/cyclinH/MAT1 complex (Homo sapiens, UniProt P50613); test: In-vitro enzymatic inhibitory activity testing, CDK7 inhibition assay (Caliper EZ Reader II); assay type: biochemical; conditions: CDK7/cyclinH/MAT1 6 nM, 180 min at 27° C.
Chain of CDK7/cyclinH/MAT1 complex (P50613 whole entry, species assumed): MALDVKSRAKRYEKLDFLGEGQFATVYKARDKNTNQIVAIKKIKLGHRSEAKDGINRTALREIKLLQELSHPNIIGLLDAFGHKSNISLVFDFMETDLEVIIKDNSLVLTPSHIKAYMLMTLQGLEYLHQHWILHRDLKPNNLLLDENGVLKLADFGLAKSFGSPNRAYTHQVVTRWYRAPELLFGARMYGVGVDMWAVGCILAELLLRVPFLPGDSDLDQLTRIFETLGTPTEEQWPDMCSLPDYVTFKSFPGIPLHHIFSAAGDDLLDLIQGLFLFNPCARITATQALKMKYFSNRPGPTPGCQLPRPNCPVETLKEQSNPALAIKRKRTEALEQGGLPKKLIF
Chain of CDK7/cyclinH/MAT1 complex (P51946 whole entry partner, species assumed): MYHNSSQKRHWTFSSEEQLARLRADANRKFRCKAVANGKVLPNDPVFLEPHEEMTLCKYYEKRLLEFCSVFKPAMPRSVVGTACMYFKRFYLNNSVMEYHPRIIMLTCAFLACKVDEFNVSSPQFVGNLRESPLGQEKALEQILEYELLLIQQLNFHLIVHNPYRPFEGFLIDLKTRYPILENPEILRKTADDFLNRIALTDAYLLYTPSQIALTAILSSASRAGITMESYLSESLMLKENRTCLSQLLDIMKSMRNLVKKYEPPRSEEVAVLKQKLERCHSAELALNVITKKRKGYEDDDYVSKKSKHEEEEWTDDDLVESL
Chain of CDK7/cyclinH/MAT1 complex (P51948 whole entry partner, species assumed): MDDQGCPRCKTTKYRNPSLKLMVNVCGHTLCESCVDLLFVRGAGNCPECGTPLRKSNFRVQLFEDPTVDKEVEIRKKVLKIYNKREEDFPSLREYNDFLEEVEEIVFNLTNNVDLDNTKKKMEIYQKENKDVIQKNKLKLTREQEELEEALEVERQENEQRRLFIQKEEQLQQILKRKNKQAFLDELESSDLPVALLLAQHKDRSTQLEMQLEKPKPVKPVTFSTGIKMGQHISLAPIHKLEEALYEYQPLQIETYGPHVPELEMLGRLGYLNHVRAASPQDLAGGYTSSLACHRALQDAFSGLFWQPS
Procedure: as §1, §2

[3] = tested on: human breast cancer cells HCC70; test: Cell biological activity detection (CyQuant, 72 hours), HCC70; assay type: cell-based; conditions: incubation for 72 hours
Procedure: as §3, §4

Chain of CDK9/cyclinT1 complex (P50750 whole entry, species assumed): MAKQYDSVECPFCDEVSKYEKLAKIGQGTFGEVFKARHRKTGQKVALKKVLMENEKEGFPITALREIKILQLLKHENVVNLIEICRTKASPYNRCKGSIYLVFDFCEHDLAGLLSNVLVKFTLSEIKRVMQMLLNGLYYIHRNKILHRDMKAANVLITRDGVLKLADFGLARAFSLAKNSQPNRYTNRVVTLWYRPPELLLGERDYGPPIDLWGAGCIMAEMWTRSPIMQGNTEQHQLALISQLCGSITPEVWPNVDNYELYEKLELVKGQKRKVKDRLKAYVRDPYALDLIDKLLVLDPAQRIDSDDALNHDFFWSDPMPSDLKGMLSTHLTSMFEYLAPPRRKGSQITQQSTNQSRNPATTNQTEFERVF
Chain of CDK9/cyclinT1 complex (O60563 whole entry partner, species assumed): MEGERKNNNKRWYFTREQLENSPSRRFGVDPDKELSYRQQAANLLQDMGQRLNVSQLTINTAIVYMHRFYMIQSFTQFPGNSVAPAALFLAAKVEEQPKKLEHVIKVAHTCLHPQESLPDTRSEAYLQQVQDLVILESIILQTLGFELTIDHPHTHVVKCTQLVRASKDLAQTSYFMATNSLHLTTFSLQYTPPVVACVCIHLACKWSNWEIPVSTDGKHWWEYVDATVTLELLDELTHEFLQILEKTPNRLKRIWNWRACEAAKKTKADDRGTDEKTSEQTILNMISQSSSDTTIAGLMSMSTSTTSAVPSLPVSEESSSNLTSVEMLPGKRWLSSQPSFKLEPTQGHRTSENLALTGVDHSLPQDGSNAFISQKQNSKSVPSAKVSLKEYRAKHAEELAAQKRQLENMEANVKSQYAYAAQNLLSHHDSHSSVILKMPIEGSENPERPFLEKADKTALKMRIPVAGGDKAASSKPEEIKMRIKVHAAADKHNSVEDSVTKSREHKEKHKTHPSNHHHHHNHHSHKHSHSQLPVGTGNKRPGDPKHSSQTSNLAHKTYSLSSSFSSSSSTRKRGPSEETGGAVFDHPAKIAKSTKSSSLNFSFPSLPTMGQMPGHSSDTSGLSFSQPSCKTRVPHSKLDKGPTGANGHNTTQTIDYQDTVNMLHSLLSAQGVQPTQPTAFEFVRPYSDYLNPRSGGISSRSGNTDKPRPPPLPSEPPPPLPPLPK

| SMILES | IC50 (CDK9/cyclinT1 complex) | IC50 (CDK2/cyclinE1 complex) | IC50 (ovarian cancer A2780; Homo sapiens, A2780, 72 h) | IC50 [1] | IC50 [2] | IC50 (ovarian cancer A2780) | IC50 ([3]; Homo sapiens, HCC70, 72 h) | IC50 [3] |
| --- | --- | --- | --- | --- | --- | --- | --- | --- |
| Cc1noc(C)c1-c1ccc2c(-c3nc(N[C@@H]4CCC45CNC5)ncc3C(F)(F)F)c[nH]c2n1 [Compound 36, (R)—N-(4-(6-(3,5-dimethylisoxazol-4-yl)-1H-pyrrolo[2,3-b]pyridin-3-yl)-5-(trifluoromethyl)pyrimidin-2-yl)-2-azaspiro[3.3]heptan-5-amine] | 5 to 50 µM | 5 to 50 µM | < 0.02 µM | 0.2 to 5 µM | < 0.02 µM | – | – | – |
| C[C@H]1C[C@H](Nc2ncc(C(F)(F)F)c(-c3c[nH]c4nc(N5CCOCC5)ccc34)n2)CCN1 [Compound 53, N-((2S,4R)-2-methylpiperidin-4-yl)-4-(6-morpholinyl-1H-pyrrolo[2,3-b]pyridin-3-yl)-5-(trifluoromethyl)pyrimidin-2-amine] | – | – | 0.2 to 5 µM | – | – | – | 0.2 to 5 µM | – |
| N#Cc1ccc2c(-c3nc(N[C@@H]4CCC45CNC5)ncc3C(F)(F)F)c[nH]c2n1 [Compound 61, (R)-3-(2-((2-azaspiro[3.3]heptan-5-yl)amino)-5-(trifluoromethyl)pyrimidin-4-yl)-1H-pyrrolo[2,3-b]pyridine-6-carbonitrile] | 5 to 50 µM | 5 to 50 µM | 0.2 to 5 µM | 5 to 50 µM | < 0.02 µM | – | – | – |
| CC(C)(C)[C@H](CO)Nc1ncc(C(F)(F)F)c(-c2c[nH]c3c(P(C)(C)=O)cccc23)n1 [Compound 176] | – | – | – | – | – | – | < 0.02 µM | – |

Second part, led by results:

| IC50 (CDK9/cyclinT1 complex) | IC50 (CDK2/cyclinE1 complex) | IC50 (ovarian cancer A2780; Homo sapiens, A2780, 72 h) | IC50 [1] | IC50 [2] | IC50 (ovarian cancer A2780) | SMILES | IC50 ([3]; Homo sapiens, HCC70, 72 h) | IC50 [3] |
| --- | --- | --- | --- | --- | --- | --- | --- | --- |
| 5 to 50 µM | 0.2 to 5 µM | < 0.02 µM | 5 to 50 µM | < 0.02 µM | – | CP(C)(=O)c1cccc2c(-c3nc(NC4CCC5(CCNC5)C4)ncc3C(F)(F)F)c[nH]c12 (single isomer, unassigned) [Compound 98] | < 0.02 µM | – |
| 5 to 50 µM | 0.2 to 5 µM | – | 0.2 to 5 µM | < 0.02 µM | < 0.02 µM | CP(C)(=O)c1cccc2c(-c3nc(NC4CCC5(CCNC5)C4)ncc3C(F)(F)F)c[nH]c12 (single isomer, unassigned) [Compound 100] | – | < 0.02 µM |
| 5 to 50 µM | 0.2 to 5 µM | < 0.02 µM | 0.2 to 5 µM | < 0.02 µM | – | CP(C)(=O)c1cccc2c(-c3nc(NC4CC45CCNC5)ncc3C(F)(F)F)c[nH]c12 (single isomer, unassigned) [Compound 108] | < 0.02 µM | – |
| – | 0.2 to 5 µM | < 0.02 µM | – | < 0.02 µM | – | CP(C)(=O)c1cccc2c(-c3nc(NC4CC(F)(F)CC4O)ncc3C(F)(F)F)c[nH]c12 (single isomer, unassigned) [Compound 191] | 0.02 to 0.2 µM | – |
